Data on 1 molecule can be found in PMC6474360 (Biochemistry, 2018).

Broadly, the Kd is the equilibrium constant for the complex coming apart. Read a low Kd as tighter binding.

Common to all, as to type: binding
In test [1] the target is sperm whale myoglobin (ferric Mb^III), H64A mutant (Physeter macrocephalus, UniProt P02185, D123N/H65A). In words: X-ray crystal structure.
In test [2] the target is sperm whale myoglobin (ferrous Mb^II), V68A/I107Y mutant (Physeter macrocephalus, UniProt P02185, D123N/I108Y/V69A). In words: UV-vis titration.
Chain of sperm whale myoglobin (ferrous Mb^II), V68A/I107Y mutant (P02185 whole entry V69A/I108Y/D123N): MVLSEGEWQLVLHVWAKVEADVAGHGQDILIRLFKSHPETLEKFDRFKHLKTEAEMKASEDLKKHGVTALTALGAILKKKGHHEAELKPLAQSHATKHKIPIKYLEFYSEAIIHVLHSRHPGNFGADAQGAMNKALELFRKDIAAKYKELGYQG
Test [3] has as its target sperm whale myoglobin (ferrous Mb^II), H64Q mutant (Physeter macrocephalus, UniProt P02185, D123N/H65Q). In words: UV-vis titration.
The target in test [4] is sperm whale myoglobin (ferric Mb^III), wild-type (Physeter macrocephalus, UniProt P02185, D123N). Description: UV-vis titration.
Chain of sperm whale myoglobin (ferric Mb^III), wild-type (P02185 whole entry D123N): as the sequence (P02185 whole entry V69A/I108Y/D123N) above, with A69V, Y108I counted along it

Chain of sperm whale myoglobin (ferrous Mb^II), H64Q mutant (P02185 whole entry H65Q/D123N): as the sequence (P02185 whole entry V69A/I108Y/D123N) above, with H65Q, A69V, Y108I counted along it
Chain of sperm whale myoglobin (ferric Mb^III), H64A mutant (P02185 whole entry H65A/D123N): as the sequence (P02185 whole entry V69A/I108Y/D123N) above, with H65A, A69V, Y108I counted along it

Take `O=NO` [nitrite]: the Kd in test [1] is more than 20 mM; in test [2] it was 19.4 ± 0.6 mM; in test [3], 1.45 ± 0.3 mM; in test [4] it was 12.2 ± 2.2 mM.
